Where two headings read alike, the source gives them in different places.
Test system: primary rat mixed cortical cells
Assay: In vitro myelination assay (MBP positive myelin strands, fold myelin pixels above background)
Type: cell-based
Conditions: Rattus norvegicus; for fold induction at 1 µM: 1.0 μM compound; for fold induction at 10 µM: 10.0 μM compound
Outline: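 Compounds at 1.0 and 10.0 μM were incubated 14 days with dissociated P1 rat cortical cells, which were then fixed and immunostained for MBP. Myelination was scored as fold MBP myelin pixels per well over the no-compound baseline.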

[1] = read-out: Fold myelin pixels above background relative to baseline of no added compound
[2] = relative to baseline of no added compound, read-out: Fold myelin pixels above background, 1.0 μM
[3] = relative to baseline of no added compound, read-out: Fold myelin pixels above background, 10.0 μM
[4] = relative to baseline of no added compound, read-out: Fold myelin pixels above background

Structure (SMILES) | fold induction at 1 µM [1] | fold induction at 10 µM [1] | other results
Cc1cc(Nc2ncn(-c3cc(F)cc(F)c3)n2)cc(N2CCN(CCN(C)C)CC2)c1 [Compound 809, 1-(3,5-difluorophenyl)-N-[3-[4-[2-(dimethylamino)ethyl]piperazin-1-yl]-5-methyl-phenyl]-1,2,4-triazol-3-amine] | 1 to 10 | ≤ 1 | –
Cc1cc(Nc2ncn(-c3cc(F)cc(F)c3)n2)c(F)c(NC2CCCC2N2CCOCC2)c1 (stereo not drawn) [Compound 1007, N3-[1-(3,5-difluorophenyl)-1,2,4-triazol-3-yl]-2-fluoro-5-methyl-N1-(2-morpholinocyclopentyl)benzene-1,3-diamine] | 1 to 10 | 10 to 100 | –
Cc1cc(Nc2ncn(-c3cc(F)cc(F)c3)n2)cc(N2CCN(CCOC(C)C)CC2)c1 [Compound 1005, 1-(3,5-difluorophenyl)-N-[3-[4-(2-isopropoxyethyl)piperazin-1-yl]-5-methyl-phenyl]-1,2,4-triazol-3-amine] | 1 to 10 | ≤ 1 | –
Cc1cc(Nc2ncn(-c3ccccc3)n2)cc(N2CCN(C3CCOCC3)CC2)c1 [Compound 289, N-[3-methyl-5-(4-tetrahydropyran-4-ylpiperazin-1-yl)phenyl]-1-phenyl-1,2,4-triazol-3-amine] | – | – | fold induction at 1 µM [2]: 1000 to 10000; fold induction at 10 µM [3]: 1 to 10
Cc1cc(Nc2ncn(-c3cccc(F)c3)n2)cc(NC2CCN(C3COC3)CC2)c1 [Compound 192, N3-[1-(3-fluorophenyl)-1,2,4-triazol-3-yl]-5-methyl-N1-[1-(oxetan-3-yl)-4-piperidyl]benzene-1,3-diamine] | – | – | fold induction at 1 µM [2]: 100 to 1000; fold induction at 10 µM [3]: ≤ 1
COc1cc(Nc2ncn(-c3cccc(C(F)F)c3)n2)cc(N2CCN(C3COC3)CC2)c1 [Compound 693, 1-[3-(difluoromethyl)phenyl]-N-[3-methoxy-5-[4-(oxetan-3-yl)piperazin-1-yl]phenyl]-1,2,4-triazol-3-amine] | – | – | fold induction at 1 µM [4]: 1 to 10; fold induction at 10 µM [4]: ≤ 1
N#Cc1cc(Nc2ncn(-c3cccc(F)c3)n2)cc(N2CCOCC2)c1 [Compound 737, 3-[[1-(3-fluorophenyl)-1,2,4-triazol-3-yl]amino]-5-morpholino-benzonitrile] | – | – | fold induction at 1 µM [4]: 10 to 100; fold induction at 10 µM [4]: 10 to 100
Cc1cc(Nc2ncn(-c3ccc(F)c(F)c3)n2)cc(N[C@H]2C[C@@H](N3CCOCC3)C2)c1 (single isomer, unassigned) [Compound 826, N1-[1-(3,4-difluorophenyl)-1,2,4-triazol-3-yl]-5-methyl-N3-(3-morpholinocyclobutyl)benzene-1,3-diamine] | 10 to 100 | ≤ 1 | –
Cc1cc(Nc2ncn(-c3ccc(F)c(F)c3)n2)nc(N2CC(N3CCOCC3)C2)c1 [Compound 501, N-[1-(3,4-difluorophenyl)-1,2,4-triazol-3-yl]-4-methyl-6-(3-morpholinoazetidin-1-yl)pyridin-2-amine] | – | – | fold induction at 1 µM [4]: 1 to 10; fold induction at 10 µM [4]: ≤ 1
Cc1cc(Nc2ncn(-c3cc(F)cc(F)c3)n2)cc(N2CCN(CCOCCO)CC2)c1 [Compound 1033, 2-[2-[4-[3-[[1-(3,5-difluorophenyl)-1,2,4-triazol-3-yl]amino]-5-methyl-phenyl]piperazin-1-yl]ethoxy]ethanol] | 1 to 10 | ≤ 1 | –
Cc1cc(Nc2ncn(-c3cc(F)cc(F)c3)n2)cc(OCCN2CCOCC2)c1 [Compound 812, 1-(3,5-difluorophenyl)-N-[3-methyl-5-(2-morpholinoethoxy)phenyl]-1,2,4-triazol-3-amine] | 10 to 100 | 10 to 100 | –
CC(C)(C)c1cc(Nc2ncn(-c3cnccn3)n2)cc(N2CCN(C3COC3)CC2)c1 [Compound 288, N-[3-tert-butyl-5-[4-(oxetan-3-yl)piperazin-1-yl]phenyl]-1-pyrazin-2-yl-1,2,4-triazol-3-amine] | – | – | fold induction at 1 µM [2]: 1000 to 10000; fold induction at 10 µM [3]: 1000 to 10000
